This note sets out measurements from ChEMBL document CHEMBL3351860, “Synthesis and SAR of thieno[3,2-b]pyridinyl urea derivatives as urotensin-II receptor antagonists” (Bioorg Med Chem Lett, 2014).

The target in data set [1] is T1, Urotensin-2 receptor (Homo sapiens, UniProt Q9UKP6).
T1 sequence (Q9UKP6 whole entry): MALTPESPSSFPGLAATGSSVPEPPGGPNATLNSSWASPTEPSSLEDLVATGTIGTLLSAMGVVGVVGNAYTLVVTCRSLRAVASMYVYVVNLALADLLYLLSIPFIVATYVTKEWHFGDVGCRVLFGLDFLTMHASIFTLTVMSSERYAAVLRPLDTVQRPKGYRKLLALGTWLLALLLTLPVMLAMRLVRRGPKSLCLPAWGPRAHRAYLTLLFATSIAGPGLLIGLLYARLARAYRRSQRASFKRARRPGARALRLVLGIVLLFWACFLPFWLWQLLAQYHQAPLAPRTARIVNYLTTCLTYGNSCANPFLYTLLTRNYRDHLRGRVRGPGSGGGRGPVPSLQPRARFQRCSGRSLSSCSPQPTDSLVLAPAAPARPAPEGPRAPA
Nature of the data set: Displacement of europium-labeled urotensin-II from human urotensin-2 receptor expressed in HEK293 cells by TRF assay. The data set is classed as cell-based.

The target in data set [2] is T2, Urotensin-2 receptor (Homo sapiens) (UniProt Q9UKP6).
T2 sequence (whole entry): T1 sequence (Q9UKP6 whole entry)
Nature of the data set: Displacement of europium-labeled urotensin-II from human urotensin-2 receptor expressed in HEK293 cells at 10 uM by TRF assay. The class given is cell-based.

A short description of data set [3]: Metabolic stability in human liver microsomes after 30 mins. The data set is classed as ADME. Conditions: read-out: Stability.
Data set [4] can be described thus: Metabolic stability in rat liver microsomes after 30 mins. Conditions: read-out: Stability. The class given is ADME. On the technique in general: Microsomes from liver hold many membrane-bound enzymes, among them those of drug oxidation.
Data set [5] concerns the target CYP3A4 (Homo sapiens, UniProt P08684). Nature of the data set: Inhibition of CYP3A4 (unknown origin) at 10 uM. The data set is classed as ADME.
In data set [6] the target is Voltage-gated inwardly rectifying potassium channel KCNH2 (Homo sapiens, UniProt Q12809). Nature of the data set: Inhibition of human ERG by patch clam assay.
A short description of data set [7]: Permeability of the compound by PAMPA assay. The data set is classed as ADME. Conditions: read-out: permeability. In general terms: The PAMPA barrier holds no transporters, so it reflects passive diffusion.

Some results are limits rather than exact numbers.

Chain of Voltage-gated inwardly rectifying potassium channel KCNH2 (Q12809 whole entry, the tested form may be a part): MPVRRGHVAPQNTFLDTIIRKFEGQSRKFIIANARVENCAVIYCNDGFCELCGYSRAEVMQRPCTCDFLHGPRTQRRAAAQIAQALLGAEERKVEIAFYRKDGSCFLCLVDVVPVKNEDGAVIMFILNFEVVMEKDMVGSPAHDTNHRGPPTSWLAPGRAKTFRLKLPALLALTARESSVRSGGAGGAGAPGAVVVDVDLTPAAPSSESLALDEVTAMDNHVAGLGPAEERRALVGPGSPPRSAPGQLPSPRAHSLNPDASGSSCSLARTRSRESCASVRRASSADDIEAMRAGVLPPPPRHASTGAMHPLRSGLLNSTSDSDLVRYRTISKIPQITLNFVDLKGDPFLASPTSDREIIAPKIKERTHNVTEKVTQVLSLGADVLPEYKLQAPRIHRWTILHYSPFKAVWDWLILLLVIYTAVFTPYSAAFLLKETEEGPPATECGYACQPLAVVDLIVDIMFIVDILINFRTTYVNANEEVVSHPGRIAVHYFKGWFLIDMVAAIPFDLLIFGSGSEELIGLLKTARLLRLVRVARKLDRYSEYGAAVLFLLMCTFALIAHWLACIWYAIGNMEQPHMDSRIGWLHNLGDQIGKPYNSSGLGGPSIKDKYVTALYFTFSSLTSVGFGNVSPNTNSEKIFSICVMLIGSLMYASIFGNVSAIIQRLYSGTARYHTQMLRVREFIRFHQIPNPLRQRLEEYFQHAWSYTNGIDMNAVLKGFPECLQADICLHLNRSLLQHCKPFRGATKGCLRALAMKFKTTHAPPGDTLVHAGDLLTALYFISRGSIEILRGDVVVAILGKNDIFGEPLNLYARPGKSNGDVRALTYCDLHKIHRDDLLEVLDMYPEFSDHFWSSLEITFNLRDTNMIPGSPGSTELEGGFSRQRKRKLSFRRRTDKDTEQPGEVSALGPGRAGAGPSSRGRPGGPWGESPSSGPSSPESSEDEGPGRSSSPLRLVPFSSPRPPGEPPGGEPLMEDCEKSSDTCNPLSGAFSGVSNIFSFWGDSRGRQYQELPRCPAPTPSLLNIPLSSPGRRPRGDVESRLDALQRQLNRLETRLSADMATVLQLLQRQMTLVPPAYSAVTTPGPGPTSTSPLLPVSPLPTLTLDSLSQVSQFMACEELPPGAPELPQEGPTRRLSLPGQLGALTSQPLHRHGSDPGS
Chain of CYP3A4 (P08684 whole entry): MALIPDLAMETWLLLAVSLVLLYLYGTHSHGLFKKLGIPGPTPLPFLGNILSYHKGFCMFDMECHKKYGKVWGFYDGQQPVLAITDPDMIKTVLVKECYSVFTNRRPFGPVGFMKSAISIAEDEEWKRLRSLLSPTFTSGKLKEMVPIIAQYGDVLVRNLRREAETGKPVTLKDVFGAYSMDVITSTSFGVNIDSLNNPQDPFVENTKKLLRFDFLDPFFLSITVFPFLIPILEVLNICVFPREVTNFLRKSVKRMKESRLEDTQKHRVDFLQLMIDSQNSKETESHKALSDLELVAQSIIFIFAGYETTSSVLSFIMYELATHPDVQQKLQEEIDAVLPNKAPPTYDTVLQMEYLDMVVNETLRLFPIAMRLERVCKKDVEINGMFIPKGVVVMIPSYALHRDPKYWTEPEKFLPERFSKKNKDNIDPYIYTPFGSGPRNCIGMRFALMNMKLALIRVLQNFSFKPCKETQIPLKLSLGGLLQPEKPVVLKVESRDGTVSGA

In general, IC50 refers to the point on the concentration scale where inhibition reaches its midpoint. The molecule `O=C(NCCN1CCC(O)(Cc2ccccc2)CC1)Nc1ccnc2ccsc12` registered an IC50 in data set [1] of 36 nM. A word on the inhibition: it is how much of the control response was suppressed. The molecule `O=C(NCCN1CCC(O)(Cc2ccccc2)CC1)Nc1cc(Cl)nc2ccsc12` displayed an inhibition in data set [2] of 25.6%. Turning to `O=C(NCCN1CCC(O)(Cc2ccccc2)CC1)Nc1ccnc2c(Br)csc12`, in data set [1], the IC50 is 3220 nM. `O=C(NCCN1CCC(O)(Cc2cccc(Br)c2)CC1)Nc1ccnc2ccsc12`: the IC50 in data set [1] turned out to be 42 nM. In data set [1], `Cn1ccc2c(NC(=O)NCCN3CCC(O)(Cc4ccccc4)CC3)ccnc21` registered an IC50 of 160 nM.

`O=C(NCCN1CCC(O)(Cc2ccccc2Br)CC1)Nc1ccnc2ccsc12` displayed an IC50 in data set [1] of 20 nM. Still for that read-out and setting: in the case of `Cc1ccc(CC2(O)CCN(CCNC(=O)Nc3ccnc4ccsc34)CC2)cc1` it was 190 nM; in that of `CCc1cc(NC(=O)NCCN2CCC(O)(Cc3ccccc3)CC2)c2sccc2n1`, 60 nM. `Cc1cc2nccc(NC(=O)NCCN3CCC(O)(Cc4ccccc4)CC3)c2s1`: the IC50 in data set [1] is 78 nM. The same measure, in the same setting: under `Cc1csc2c(NC(=O)NCCN3CCC(O)(Cc4ccccc4)CC3)ccnc12` stands 1230 nM.

Consider `O=C(NCCN1CCC(O)(Cc2ccccc2)CC1)Nc1cc(-c2ccccc2)nc2ccsc12`, for which the inhibition in data set [2] is 25.4%. Same read-out and setting: in the case of `O=C(NCCN1CCC(O)(Cc2ccccc2)CC1)Nc1ccnc2cc(-c3ccccc3)sc12` it was 47.3%. Consider `O=C(NCCN1CCC(O)(Cc2ccccc2)CC1)Nc1ccnc2sccc12`, for which the IC50 in data set [1] was 930 nM. Molecule `Cc1cc(NC(=O)NCCN2CCC(O)(Cc3ccccc3)CC2)c2cnn(C)c2n1` returned an IC50 in data set [1] of 220 nM. Compared with the last molecule, the IC50 is about 4.2-fold lower. As to `O=C(NCCN1CCC(O)(Cc2ccccc2)CC1)Nc1ccnc2ccoc12`, in data set [1], the IC50 worked out at 450 nM. Same read-out and setting: in the case of `Cc1cc(NC(=O)NCCN2CCC(O)(Cc3ccccc3)CC2)c2sccc2n1` it was 26 nM.

For the molecule `O=C(NCCN1CCC(O)(Cc2ccc(F)cc2)CC1)Nc1ccnc2ccsc12`, the IC50 in data set [1] turned out to be 13 nM; in data set [6], 5000 nM. Also, the remaining at 0.5 h was 52% in data set [3] and 100% in data set [4]. Further, the inhibition at 10 µM in data set [5] was above 10%. Further, the Papp in data set [7] is 0.027 ×10⁻⁶ cm/s.

`Cc1cccc(CC2(O)CCN(CCNC(=O)Nc3ccnc4ccsc34)CC2)c1`: in data set [1], the IC50 came to 140 nM. That is a sub-micromolar value.

`Cn1cnc2c(NC(=O)NCCN3CCC(O)(Cc4ccccc4)CC3)ccnc21`: in data set [1], the IC50 was 2140 nM. On the same count and under the same terms, under `Cc1ccccc1CC1(O)CCN(CCNC(=O)Nc2ccnc3ccsc23)CC1` stands 20 nM; under `Cn1ccc2nccc(NC(=O)NCCN3CCC(O)(Cc4ccccc4)CC3)c21`, 600 nM.
